Data on 34 molecules can be found in publication PMC8920097, “Prediction of hERG inhibition of drug discovery compounds using biomimetic HPLC measurements” (ADMET & DMPK, 2021).

Data set [1] can be described thus: Charge character of the drugs at pH 7.4. It is filed as physicochemical.
The nature of data set [2]: CHI lipophilicity by gradient reversed-phase HPLC (Gemini NX-C-18). The note with it: for chromatographic logD: Gemini NX-C-18 reversed-phase HPLC column, pH 7.4; for chromatographic logP: reversed-phase HPLC, Gemini NX-C-18 column (50 x 3 mm, 5 µm). On the procedure:
The Chromatographic Hydrophobicity Index (CHI) was measured using the compounds’ calibrated gradient retention times obtained from an Agilent 1100 HPLC fitted with a Gemini NX-C-18 column (Phenomenex Ltd Macclesfield, UK) with dimensions of 50 x 3 mm and 5 μm particle size. […] The mobile phase B was 100 % acetonitrile. […] An acetonitrile linear gradient was used from 0 to 100 %. […] The retention time values for a standard set of compounds listed in Table 1 were used to convert the drug retention times to CHI values.

Data set [3] in a line: Phospholipid binding at pH 7.4 on IAM PC.DD2 HPLC column. It is filed as physicochemical. On the set-up: key to CHI IAM: approximates acetonitrile concentration (%) in mobile phase at elution. How it is done: The phospholipid-binding was measured using an IAM PC.DD2 column with dimensions of 100 x 4.6 mm (Regis Technologies Inc., Morton Grove, IL, USA). The gradient retention times were measured using a 50 mM ammonium acetate mobile phase with the pH adjusted to 7.4. The mobile phase flow rate was 1.5 mL/min. […] The cycle time was 6 min, plus an additional 1 min equilibration time was applied while the injector prepared for the next injection. The gradient retention times were calibrated with the acetophenone homologues for which the CHI IAM values have been established using isocratic measurements. […] The CHI Index on the IAM column (CHI IAM) approximates the acetonitrile concentration in the mobile phase when the compound elutes. […] The CHI IAM values have been converted to log k IAM values derived from the CHI IAM values using equation 1. It represents the equivalent value derived from several isocratic measurements with extrapolated log retention factors to 100 % aqueous mobile phase. The log k IAM values can be converted to log K (IAM) values and show linear relationships with the octanol/water partition coefficients.

The subject of data set [4] is hERG channel. The note with it: cited from earlier work.
For data set [5], the system named is alpha-1-acid-glycoprotein (AGP). The data set is described as follows: Protein binding on Chiralpak AGP HPLC column. The note with it: pH 7.4, Chiralpak AGP. How it is done: The measurement of the biomimetic properties of the available drugs was conducted in our laboratories. Generic gradient HPLC methods were used to determine the chromatographic hydrophobicity Index (CHI) using mobile phases at three different pH values. The protein binding of the compounds was measured using immobilised human serum albumin (HSA), and alpha-1-acid-glycoprotein (AGP) stationary phases. The phospholipid-binding was measured using the immobilised artificial membrane (IAM) stationary phase. The aim was to establish relationships between the cardiotoxicity potential and the biomimetic binding properties of the drugs and to evaluate their predictive performance.

The mark [6] stands for this setting: pH 7.4, derived from CHI IAM by equation 1.
The mark [7] stands for this setting: literature values, mean where several reported, molar.

Like-named read-outs stand apart in the source and are kept apart here.

A word on the chromatographic logD: it is a lipophilicity value derived from retention on a column. Usually chromatographic logP stands for a lipophilicity value derived from retention on a column.

As to `CN(C)CCC=C1c2ccccc2CCc2ccccc21` [Amitriptyline], the Charge result in data set [1] was “Basic”. Also, in data set [2], the chromatographic logD came out at 2.65 and the chromatographic logP was determined as 5.21. Also, in data set [3] (setting [6]), the “log k IAM” value is reported as 2.96.

In data set [2], `CN1CCc2cccc3c2[C@H]1Cc1ccc(O)c(O)c1-3` [Apomorphine] yielded a chromatographic logD of 1.17 and a chromatographic logP of 2.66. For the same molecule, in data set [3] (setting [6]), the “log k IAM” value is 2.24.

Turning to `CC(C)NCC(O)COc1ccc(CC(N)=O)cc1` (stereo not drawn) [Atenolol], in data set [1], the Charge result is recorded as “Basic”. Moreover, in data set [3] (setting [6]), the “log k IAM” value is recorded as 1.14.

With `O=C(O)COCCN1CCN(C(c2ccccc2)c2ccc(Cl)cc2)CC1` (stereo not drawn) [Cetirizine], in data set [3] (setting [6]), the “log k IAM” value is 2.29.

On to `CCN(CC)CCCC(C)Nc1ccnc2cc(Cl)ccc12` (stereo not drawn) [Chloroquine], for which the “hERG pIC50” value in data set [4] (setting [7]) is 5.03.

As to `O=C(O)c1cn(C2CC2)c2cc(N3CCNCC3)c(F)cc2c1=O` [Ciprofloxacin], the Charge result in data set [1] is given as “Zwitterionic”. In data set [3] (setting [6]), the “log k IAM” value worked out at 1.59.

Regarding `CN(C)CCCC1(c2ccc(F)cc2)OCc2cc(C#N)ccc21` (stereo not drawn) [Citalopram], the Charge result in data set [1] is given as “Basic”. Also, the “hERG pIC50” value in data set [4] was 5.27.

In the case of `CN1CCC[C@@H]1CCO[C@](C)(c1ccccc1)c1ccc(Cl)cc1` [Clemastine], in data set [1], the Charge result is “Basic”. In data set [2], this molecule came in with a chromatographic logD of 3.18 and a chromatographic logP of 3.18. In data set [5], the “log k AGP” value amounted to 1.18. Also, the “log k IAM” value in data set [3] (setting [6]) is reported as 3.19.

Regarding `CNCCCN1c2ccccc2CCc2ccccc21` [Desipramine], the Charge entry in data set [1] is “Basic”. Besides, the “log k AGP” value in data set [5] amounted to 0.94. The “hERG pIC50” value in data set [4] (setting [7]) was 5.36.

As for `COc1ccc([C@@H]2Sc3ccccc3N(CCN(C)C)C(=O)[C@@H]2OC(C)=O)cc1` [Diltiazem], the Charge result in data set [1] was “Basic”. In data set [2], this molecule returned a chromatographic logD of 2.76 and a chromatographic logP of 3.12. In addition, the “CHI IAM” value in data set [3] (pH 7.4) amounted to 41.95. In addition, the “log k IAM” value in data set [3] (setting [6]) came out at 2.35.

In the case of `CN(C)CCOC(c1ccccc1)c1ccccc1` [Diphenhydramine], the Charge entry in data set [1] is recorded as “Basic”. The “log k IAM” value in data set [3] (setting [6]) came to 2.06.

Consider `O=C(O[C@@H]1C[C@@H]2C[C@H]3C[C@H](C1)N2CC3=O)c1c[nH]c2ccccc12` [Dolasetron], for which the Charge result in data set [1] is given as “Weak Base”. For the same molecule, in data set [2], the chromatographic logD is 1.46 and the chromatographic logP worked out at 1.46. For the same molecule, the “log k IAM” value in data set [3] (setting [6]) was found to be 1.95.

Turning to `CC(C)(C)c1ccc(C(=O)CCCN2CCC(OC(c3ccccc3)c3ccccc3)CC2)cc1` [Ebastine], the Charge result in data set [1] was “Basic”. In data set [2], this molecule returned a chromatographic logD of 4.96 and a chromatographic logP of 6.54. In addition, the “log k AGP” value in data set [5] was found to be 1.34. Besides, in data set [3] (setting [6]), the “log k IAM” value stood at 3.12.

As for `CC[C@H]1OC(=O)[C@H](C)[C@@H](O[C@H]2C[C@@](C)(OC)[C@@H](O)[C@H](C)O2)[C@H](C)[C@@H](O[C@@H]2O[C@H](C)C[C@H](N(C)C)[C@H]2O)[C@](C)(O)C[C@@H](C)C(=O)[C@H](C)[C@@H](O)[C@]1(C)O` [Erythromycin], the Charge entry in data set [1] is given as “Basic”. In addition, in data set [2], the chromatographic logD came out at 1.31 and the chromatographic logP was 2.6. In data set [3] (pH 7.4), the “CHI IAM” value is recorded as 38.79. The “log k IAM” value in data set [3] (setting [6]) is listed as 2.20.

For `CNCCC(Oc1ccc(C(F)(F)F)cc1)c1ccccc1` (stereo not drawn) [Fluoxetine], the “hERG pIC50” value in data set [4] (setting [7]) is on record as 5.73.

For the molecule `COc1ccc(Cl)cc1C(=O)NCCc1ccc(S(=O)(=O)NC(=O)NC2CCCCC2)cc1` [Glibenclamide], in data set [1], the Charge entry is recorded as “Acidic”. In data set [2], this molecule yielded a chromatographic logD of 2.07 and a chromatographic logP of 3.17. Moreover, in data set [3] (setting [6]), the “log k IAM” value is given as 1.93.

Regarding `CCC1=C(C)CN(C(=O)NCCc2ccc(S(=O)(=O)NC(=O)N[C@H]3CC[C@H](C)CC3)cc2)C1=O` [Glimepiride], in data set [2], the chromatographic logD turned out to be 2.42 and the chromatographic logP was found to be 3.25. The “log k AGP” value in data set [5] is 0.40. Also, in data set [3] (pH 7.4), the “CHI IAM” value amounted to 30.76. Moreover, the “log k IAM” value in data set [3] (setting [6]) is 1.83. For the same molecule, the “hERG pIC50” value in data set [4] is 4.13.

Regarding `CN(C)CCCN1c2ccccc2CCc2ccccc21` [Imipramine], the “log k AGP” value in data set [5] was 0.96.

As to `CC(=O)N1CCN(c2ccc(OCC3COC(Cn4ccnc4)(c4ccc(Cl)cc4Cl)O3)cc2)CC1` (stereo not drawn) [Ketoconazole], the “CHI IAM” value in data set [3] (pH 7.4) worked out at 37.86. In addition, the “log k IAM” value in data set [3] (setting [6]) amounted to 2.16.

In the case of `CCN(CC)CC(=O)Nc1c(C)cccc1C` [Lidocaine], the Charge entry in data set [1] is given as “Weak Base”. In data set [3] (setting [6]), the “log k IAM” value amounted to 1.91.

In data set [2], `CCn1cc(C(=O)O)c(=O)c2cc(F)c(N3CCNC(C)C3)c(F)c21` (stereo not drawn) [Lomefloxacin] registered a chromatographic logD of -0.14 and a chromatographic logP of -0.14. For the same molecule, in data set [3] (pH 7.4), the “CHI IAM” value was 37.89. Moreover, the “log k IAM” value in data set [3] (setting [6]) stood at 2.16.

`CCOC(=O)N1CCC(=C2c3ccc(Cl)cc3CCc3cccnc32)CC1` [Loratadine]: the Charge result in data set [1] is recorded as “Weak Base”. Further, the “log k IAM” value in data set [3] (setting [6]) is 2.46.

With `CC[C@H](C)C(=O)O[C@H]1C[C@@H](C)C=C2C=C[C@H](C)[C@H](CC[C@@H]3C[C@@H](O)CC(=O)O3)[C@H]21` [Lovastatin], the chromatographic logD in data set [2] is 4.09. Moreover, the “CHI IAM” value in data set [3] (pH 7.4) is given as 44.38. Besides, the “log k IAM” value in data set [3] (setting [6]) is recorded as 2.46.

`Cc1cc2c(s1)Nc1ccccc1N=C2N1CCN(C)CC1` [Olanzapine]: the Charge entry in data set [1] is “Weak Base”. Moreover, the “log k IAM” value in data set [3] (pH 7.4) came to 2.71.

As to `CCN(CC)CCNC(=O)c1ccc(N)cc1` [Procainamide], the Charge result in data set [1] is given as “Basic”. In data set [2], this molecule came in with a chromatographic logD of -0.59 and a chromatographic logP of 0.95. Also, the “log k IAM” value in data set [3] (setting [6]) turned out to be 1.29.

In data set [2], `OCCOCCN1CCN(C2=Nc3ccccc3Sc3ccccc32)CC1` [Quetiapine] yielded a chromatographic logD of 2.55 and a chromatographic logP of 2.69.

As for `Cc1nc2n(c(=O)c1CCN1CCC(c3noc4cc(F)ccc34)CC1)CCCC2` [Risperidone], the Charge entry in data set [1] was “Weak Base”. Further, the “log k IAM” value in data set [3] (setting [6]) was 2.09.

`CC(C)c1nc(CN(C)C(=O)N[C@H](C(=O)N[C@@H](Cc2ccccc2)C[C@H](O)[C@H](Cc2ccccc2)NC(=O)OCc2cncs2)C(C)C)cs1` [Ritonavir]: in data set [1], the Charge result is “Neutral”. In data set [2], the chromatographic logD turned out to be 3.25 and the chromatographic logP stood at 3.41. The “log k AGP” value in data set [5] worked out at 0.64. For the same molecule, the “CHI IAM” value in data set [3] (pH 7.4) is listed as 38.64. In addition, in data set [3] (setting [6]), the “log k IAM” value was 2.2.

`CCCc1nn(C)c2c(=O)[nH]c(-c3cc(S(=O)(=O)N4CCN(C)CC4)ccc3OCC)nc12` [Sildenafil]: the Charge result in data set [1] is given as “Weak Base”. In data set [2], the chromatographic logD was 2.59 and the chromatographic logP was 2.62. The “CHI IAM” value in data set [3] (pH 7.4) amounted to 35.00. For the same molecule, in data set [3] (setting [6]), the “log k IAM” value amounted to 2.03.

For `Cc1cc(NS(=O)(=O)c2ccc(N)cc2)no1` [Sulfamethoxazole], in data set [3] (setting [6]), the “log k IAM” value is 1.01.

In data set [2], `CSc1ccc2c(c1)N(CCC1CCCCN1C)c1ccccc1S2` (stereo not drawn) [Thioridazine] came in with a chromatographic logD of 3.02 and a chromatographic logP of 5.46. Further, the “log k IAM” value in data set [3] (setting [6]) is recorded as 3.65.

Turning to `Cc1ccc(O)c([C@H](CCN(C(C)C)C(C)C)c2ccccc2)c1` [Tolterodine], in data set [2], the chromatographic logD was 2 and the chromatographic logP is 4.95. Besides, the “log k IAM” value in data set [3] (setting [6]) came out at 2.83.

Regarding Nicotine, the “hERG pIC50” value in data set [4] is 3.61.

As for Prazosin, the “hERG pIC50” value in data set [4] (setting [7]) is 5.22.
